Experiments:
MC38 cells = experiment: Cell viability assay (MTS); assay type: cell-based, murine; conditions: (SEM)
Method: Cell Viability Assay. MC38 cells were seeded at 3000 cells/well in 96-well plates 24 hours before treatments. […] After 72 hour-treatment, cell viability was examined by CellTiter 96R AQueous One Solution (Promega, Madison, WI) per manufacturer protocol. The IC50 for R848 or IVM was determined by R programming.

[1] = Saturated solubility study in squalene NE and PBS; assay type: physicochemical; conditions: 2 mg/ml, room temperature, 24 hours
Method: In the saturated solubility study, R848 or IVM were dissolved in PBS or formulated in NE at 2 mg/ml and incubated at room temperature for 24 hours. Insoluble solid drugs were pelleted down by centrifugation. Supernatants were collected for concentration analysis. R848 concentrations were quantified by UV-Vis spectrometry at 320 nm using a NanoDrop 2000 spectrophotometer. IVM concentrations were quantified by high-performance liquid chromatography (HPLC) using an isocratic mobile phase composed of water/methanol/acetonitrile (8:36:56, v/v/v), an C18 column (Kromasil 150-C-18, 4.6×150 mm), and PDA detection at 230 nm.

[2] = system: Calreticulin, Hmgb1, Lc3b mRNA in MC38 cells; experiment: In vitro gene regulation by RT-qPCR; assay type: cell-based, murine; conditions: 8 μM, 24 hours
Method: MC38 cells were seeded at 3×10^5 cells/well in 6-well plates 24 hours before treatments. […] R848 and IVM were both treated at 8 μM, either as free drug solution or in squalene NE. Total RNA was extracted using TRI reagent (Zymo Research) per manufacturer protocol. cDNA was prepared by high-capacity cDNA reverse transcription kit (Invitrogen, Waltham, MA, USA), and real-time qPCR (RT-qPCR) was done using SsoAdvanced™ Universal SYBRR Green Supermix (Bio-Rad Laboratories, Hercules, CA) on a QuantStudio 7 Flex Real-time PCR System. RT-qPCR primers for murine Calreticulin, Hmgb1, Lc3b, and Actb were purchased from Sigma-Aldrich. Actb was selected as the housekeeping gene control. The relative amount of RNA level was calculated and compared according to the 2-ΔΔCt method.

Row | SMILES | IC50 (MC38 cells; 72 hours) [µM] | Increase of solubility in squalene-based NE compared with PBS [1] [fold] | Calreticulin mRNA level [2] | IC50 (MC38 cells; Mus musculus, MC-38, 72 hours) [µM]
1 | CC[C@H](C)[C@H]1O[C@]2(CC[C@@H]1C)C[C@@H]1C[C@@H](C/C=C(\C)[C@@H](O[C@H]3C[C@H](OC)[C@@H](O[C@H]4C[C@H](OC)[C@@H](O)[C@H](C)O4)[C@H](C)O3)[C@@H](C)/C=C/C=C3\CO[C@@H]4[C@H](O)C(C)=C[C@@H](C(=O)O1)[C@]34O)O2 [IVM] | 10.9 ± 4.15 | 100 | did not show significant Calreticulin regulation | –
2 | CCOCc1nc2c(N)nc3ccccc3c2n1CC(C)(C)O [R848, 4-amino-2-ethoxymethyl-α, α-dimethyl-1H-imidazol[4,5-c]quinoli-ne-1-ethanol] | – | 2 | – | > 100
